Blank lines part the entries; values can stand above or below the molecule they belong to. Calls of active or inactive are those of the source. No cut-off for these calls is given here.
Columns and labels:
[1] = Inhibition of phosphatidyl serine liposome-stimulated sheep brain dynamin 1 GTPase activity assessed as reduction orthophosphate release using GTP as substrate after 30 mins by malachite green reagent based colorimetric assay; set-up: species or system Ovis aries
SW480 = assay: Growth inhibition of human SW480 cells after 72 hrs by MTT assay; assay type: functional; conditions: SW480, 72 h
HT-29 = assay: Growth inhibition of human HT-29 cells after 72 hrs by MTT assay; assay type: functional; conditions: HT-29, 72 h
[2] = Growth inhibition of human SMA cells after 72 hrs by MTT assay; assay type: functional
MCF7 = assay: Growth inhibition of human MCF7 cells after 72 hrs by MTT assay; assay type: functional; conditions: MCF7, 72 h
BE(2)-C = assay: Growth inhibition of human BE(2)-C cells after 72 hrs by MTT assay; assay type: functional
[3] = Growth inhibition of human SJ-G2 cells after 72 hrs by MTT assay; assay type: functional; conditions: SJ-G2, 72 h
MIA PaCa-2 = assay: Growth inhibition of human MIAPaCa2 cells after 72 hrs by MTT assay; assay type: functional; conditions: MIA PaCa-2, 72 h
A2780 = assay: Growth inhibition of human A2780 cells after 72 hrs by MTT assay; assay type: functional; conditions: A2780, 72 h
A-431 = assay: Growth inhibition of human A431 cells after 72 hrs by MTT assay; assay type: functional; conditions: A-431, 72 h
NCI-H460 = assay: Growth inhibition of human NCI-H460 cells after 72 hrs by MTT assay; assay type: functional; conditions: NCI-H460, 72 h
[4] = Growth inhibition of human U87 cells after 72 hrs by MTT assay; assay type: functional, U-87MG ATCC; conditions: U-87 MG
DU-145 = assay: Growth inhibition of human DU145 cells after 72 hrs by MTT assay; assay type: functional; conditions: DU-145, 72 h
[5] = molecular target: D(2) dopamine receptor (Homo sapiens) (UniProt P14416); assay: Displacement of [3H]methyl-spiperone from human recombinant D2S receptor in HEK293 cells at 10 uM after 60 mins by scintillation counting relative to control; assay type: cell-based; conditions: values are per cent of control
D(2) dopamine receptor (Homo sapiens), sequence (P14416 whole entry): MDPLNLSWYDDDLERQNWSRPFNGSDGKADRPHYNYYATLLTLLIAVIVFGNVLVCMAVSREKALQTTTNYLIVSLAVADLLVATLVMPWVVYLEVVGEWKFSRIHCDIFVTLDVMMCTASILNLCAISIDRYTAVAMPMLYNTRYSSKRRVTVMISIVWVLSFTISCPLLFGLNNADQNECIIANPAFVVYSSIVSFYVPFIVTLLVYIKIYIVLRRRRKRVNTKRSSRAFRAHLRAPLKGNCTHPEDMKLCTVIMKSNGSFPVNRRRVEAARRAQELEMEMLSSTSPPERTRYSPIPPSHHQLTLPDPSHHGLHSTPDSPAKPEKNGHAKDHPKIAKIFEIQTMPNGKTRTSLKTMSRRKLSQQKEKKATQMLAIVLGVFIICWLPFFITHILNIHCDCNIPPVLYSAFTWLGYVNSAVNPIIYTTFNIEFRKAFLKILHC

[6] = molecular target: Histamine H1 receptor (Homo sapiens) (UniProt P35367); assay: Displacement of [3H]pyrilamine from human recombinant histamine H1 receptor in HEK293 cells at 10 uM after 60 mins by scintillation counting relative to control; assay type: cell-based; conditions: values are per cent of control
Histamine H1 receptor (Homo sapiens), sequence (P35367 whole entry): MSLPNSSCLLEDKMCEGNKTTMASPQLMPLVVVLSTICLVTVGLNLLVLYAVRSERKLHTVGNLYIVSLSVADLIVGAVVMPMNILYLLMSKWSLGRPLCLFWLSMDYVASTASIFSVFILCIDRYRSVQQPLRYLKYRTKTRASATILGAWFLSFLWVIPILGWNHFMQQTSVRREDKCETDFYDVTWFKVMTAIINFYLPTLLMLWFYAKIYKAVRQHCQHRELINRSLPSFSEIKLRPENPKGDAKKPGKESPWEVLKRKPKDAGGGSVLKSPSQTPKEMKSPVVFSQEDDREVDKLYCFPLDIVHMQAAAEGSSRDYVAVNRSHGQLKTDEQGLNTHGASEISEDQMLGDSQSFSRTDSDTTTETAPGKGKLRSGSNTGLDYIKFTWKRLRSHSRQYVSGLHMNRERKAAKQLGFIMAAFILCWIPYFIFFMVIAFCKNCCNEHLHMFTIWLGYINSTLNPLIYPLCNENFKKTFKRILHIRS

[7] = molecular target: Histamine H2 receptor (Homo sapiens) (UniProt P25021); assay: Displacement of [125I]APT from human recombinant histamine H2 receptor expressed in CHO cells at 10 uM after 120 mins by scintillation counting relative to control; assay type: cell-based; conditions: values are per cent of control
Histamine H2 receptor (Homo sapiens), sequence (P25021 whole entry): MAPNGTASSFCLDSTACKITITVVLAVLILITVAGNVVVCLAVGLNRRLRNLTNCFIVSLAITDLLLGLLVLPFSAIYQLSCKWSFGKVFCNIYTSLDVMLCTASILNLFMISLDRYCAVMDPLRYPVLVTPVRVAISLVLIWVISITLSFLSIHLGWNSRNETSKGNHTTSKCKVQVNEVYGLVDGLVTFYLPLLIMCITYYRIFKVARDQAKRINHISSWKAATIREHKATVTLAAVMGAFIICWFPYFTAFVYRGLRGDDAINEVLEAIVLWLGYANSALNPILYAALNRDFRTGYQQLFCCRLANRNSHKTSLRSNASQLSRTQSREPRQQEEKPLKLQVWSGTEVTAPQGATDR

[8] = molecular target: Melanocortin receptor 4 (Homo sapiens) (UniProt P32245); assay: Inhibition of human recombinant melanocortin 4 receptor expressed in CHO cells at 10 uM relative to control; assay type: cell-based; conditions: values are per cent of control
Melanocortin receptor 4 (Homo sapiens), sequence (P32245 whole entry): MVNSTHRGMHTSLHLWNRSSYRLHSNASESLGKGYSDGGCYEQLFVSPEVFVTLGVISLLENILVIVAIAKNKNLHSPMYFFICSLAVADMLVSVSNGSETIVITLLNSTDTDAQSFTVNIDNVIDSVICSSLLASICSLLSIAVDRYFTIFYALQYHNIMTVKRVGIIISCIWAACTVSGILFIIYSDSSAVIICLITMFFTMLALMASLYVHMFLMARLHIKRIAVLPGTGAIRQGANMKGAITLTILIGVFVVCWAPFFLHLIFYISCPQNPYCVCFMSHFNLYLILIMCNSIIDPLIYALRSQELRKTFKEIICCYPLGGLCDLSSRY

[9] = molecular target: Muscarinic acetylcholine receptor M1 (Homo sapiens) (UniProt P11229); assay: Displacement of [3H]pirenzepine from human recombinant Muscarinic acetylcholine receptor M1 expressed in CHO cells at 10 uM after 60 mins by scintillation counting relative to control; assay type: cell-based; conditions: values are per cent of control
[10] = molecular target: Muscarinic acetylcholine receptor M3 (Homo sapiens) (UniProt P20309); assay: Displacement of [3H]4-DAMP from human recombinant Muscarinic acetylcholine receptor M3 expressed in CHO cells at 10 uM after 60 mins by scintillation counting relative to control; assay type: cell-based; conditions: values are per cent of control
Muscarinic acetylcholine receptor M3 (Homo sapiens), sequence (P20309 whole entry, looked up): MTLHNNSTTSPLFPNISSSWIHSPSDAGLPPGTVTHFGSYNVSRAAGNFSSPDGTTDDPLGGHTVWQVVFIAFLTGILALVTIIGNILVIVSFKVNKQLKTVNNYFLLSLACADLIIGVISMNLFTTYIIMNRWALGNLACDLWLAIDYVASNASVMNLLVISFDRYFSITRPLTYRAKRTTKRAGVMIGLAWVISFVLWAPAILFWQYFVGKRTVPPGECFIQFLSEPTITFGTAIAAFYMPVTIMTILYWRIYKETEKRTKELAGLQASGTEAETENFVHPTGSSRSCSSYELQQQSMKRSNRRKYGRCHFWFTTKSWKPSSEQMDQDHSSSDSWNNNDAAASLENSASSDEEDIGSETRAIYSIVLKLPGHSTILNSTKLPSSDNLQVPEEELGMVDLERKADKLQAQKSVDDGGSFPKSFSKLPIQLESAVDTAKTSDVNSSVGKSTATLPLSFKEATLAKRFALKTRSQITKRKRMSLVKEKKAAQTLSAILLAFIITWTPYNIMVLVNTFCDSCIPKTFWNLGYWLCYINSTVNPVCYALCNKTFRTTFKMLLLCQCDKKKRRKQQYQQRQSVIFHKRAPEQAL

[11] = molecular target: Substance-K receptor (Homo sapiens) (UniProt P21452); assay: Displacement of [125I]NKA from human recombinant tachykinin NK2 receptor expressed in CHO cells at 10 uM after 60 mins by scintillation counting relative to control; assay type: cell-based; conditions: values are per cent of control
Substance-K receptor (Homo sapiens), sequence (P21452 whole entry): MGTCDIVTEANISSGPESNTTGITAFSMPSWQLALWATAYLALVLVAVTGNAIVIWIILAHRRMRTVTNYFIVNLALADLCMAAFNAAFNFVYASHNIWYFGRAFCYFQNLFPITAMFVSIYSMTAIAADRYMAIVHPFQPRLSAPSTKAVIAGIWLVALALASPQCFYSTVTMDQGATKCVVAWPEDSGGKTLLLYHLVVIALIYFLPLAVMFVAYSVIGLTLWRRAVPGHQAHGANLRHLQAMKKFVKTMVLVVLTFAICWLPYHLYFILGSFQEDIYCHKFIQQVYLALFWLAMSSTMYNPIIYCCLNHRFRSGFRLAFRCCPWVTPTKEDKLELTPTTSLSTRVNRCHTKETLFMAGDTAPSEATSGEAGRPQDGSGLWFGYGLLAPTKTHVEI

[12] = molecular target: Kappa-type opioid receptor (Rattus norvegicus) (UniProt P34975); assay: Displacement of [3H]U 69593 from rat recombinant kappa opioid receptor expressed in CHO cells at 10 uM after 60 mins by scintillation counting relative to control; assay type: cell-based; conditions: values are per cent of control
Kappa-type opioid receptor (Rattus norvegicus), sequence (P34975 whole entry): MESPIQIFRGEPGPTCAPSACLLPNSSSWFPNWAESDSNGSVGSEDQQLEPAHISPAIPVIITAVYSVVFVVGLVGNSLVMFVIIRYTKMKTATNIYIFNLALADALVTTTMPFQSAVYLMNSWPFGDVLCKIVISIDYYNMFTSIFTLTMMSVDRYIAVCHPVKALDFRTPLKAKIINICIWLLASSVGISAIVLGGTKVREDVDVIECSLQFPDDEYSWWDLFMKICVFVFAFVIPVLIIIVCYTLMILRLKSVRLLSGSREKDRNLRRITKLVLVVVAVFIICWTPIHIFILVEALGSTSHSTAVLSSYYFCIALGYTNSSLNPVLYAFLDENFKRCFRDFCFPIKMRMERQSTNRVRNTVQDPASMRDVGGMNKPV

[13] = molecular target: 5-hydroxytryptamine receptor 2A (Homo sapiens) (UniProt P28223); assay: Displacement of [3H]ketanserin from human recombinant 5-HT2A receptor in HEK293 cells at 10 uM after 60 mins by scintillation counting relative to control; assay type: cell-based; conditions: values are per cent of control
[14] = molecular target: 5-hydroxytryptamine receptor 2B (Homo sapiens, UniProt P41595); assay: Displacement of [125I](+/-)DOI from human recombinant 5-HT2B receptor expressed in CHO cells at 10 uM after 60 mins by scintillation counting relative to control; assay type: cell-based; conditions: values are per cent of control
5-hydroxytryptamine receptor 2B, sequence (P41595 whole entry): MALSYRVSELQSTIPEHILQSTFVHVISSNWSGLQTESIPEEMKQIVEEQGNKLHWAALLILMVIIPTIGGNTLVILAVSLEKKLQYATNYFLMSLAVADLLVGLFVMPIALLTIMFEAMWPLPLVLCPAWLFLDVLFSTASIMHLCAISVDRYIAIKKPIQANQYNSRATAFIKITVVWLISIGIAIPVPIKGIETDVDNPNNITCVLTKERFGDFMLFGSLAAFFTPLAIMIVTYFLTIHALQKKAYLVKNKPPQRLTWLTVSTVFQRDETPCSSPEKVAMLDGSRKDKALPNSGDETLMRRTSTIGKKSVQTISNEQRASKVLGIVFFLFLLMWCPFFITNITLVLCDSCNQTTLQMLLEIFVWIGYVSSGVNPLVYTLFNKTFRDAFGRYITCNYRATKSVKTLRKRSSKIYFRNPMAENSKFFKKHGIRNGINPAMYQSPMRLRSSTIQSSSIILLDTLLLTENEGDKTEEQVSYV

[15] = molecular target: 5-hydroxytryptamine receptor 5A (Homo sapiens) (UniProt P47898); assay: Displacement of [3H]LSD from human recombinant 5-HT5a receptor in HEK293 cells at 10 uM after 120 mins by scintillation counting relative to control; assay type: cell-based; conditions: values are per cent of control
5-hydroxytryptamine receptor 5A (Homo sapiens), sequence (P47898 whole entry): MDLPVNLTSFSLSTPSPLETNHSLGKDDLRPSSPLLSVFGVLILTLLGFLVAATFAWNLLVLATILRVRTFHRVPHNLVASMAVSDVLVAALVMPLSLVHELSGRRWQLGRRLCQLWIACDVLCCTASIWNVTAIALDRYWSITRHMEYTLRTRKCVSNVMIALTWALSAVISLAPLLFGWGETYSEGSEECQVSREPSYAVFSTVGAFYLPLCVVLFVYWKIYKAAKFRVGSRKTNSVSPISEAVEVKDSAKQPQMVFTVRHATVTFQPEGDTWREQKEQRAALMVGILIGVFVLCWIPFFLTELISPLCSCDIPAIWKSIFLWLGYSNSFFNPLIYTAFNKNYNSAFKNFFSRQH

[16] = molecular target: 5-hydroxytryptamine receptor 6 (Homo sapiens) (UniProt P50406); assay: Displacement of [3H]LSD from human recombinant 5-HT6 receptor expressed in CHO cells at 10 uM after 120 mins by scintillation counting relative to control; assay type: cell-based; conditions: values are per cent of control
[17] = molecular target: 5-hydroxytryptamine receptor 7 (Homo sapiens) (UniProt P34969); assay: Displacement of [3H]LSD from human recombinant 5-HT7 receptor expressed in CHO cells at 10 uM after 120 mins by scintillation counting relative to control; assay type: cell-based; conditions: values are per cent of control
5-hydroxytryptamine receptor 7 (Homo sapiens), sequence (P34969 whole entry): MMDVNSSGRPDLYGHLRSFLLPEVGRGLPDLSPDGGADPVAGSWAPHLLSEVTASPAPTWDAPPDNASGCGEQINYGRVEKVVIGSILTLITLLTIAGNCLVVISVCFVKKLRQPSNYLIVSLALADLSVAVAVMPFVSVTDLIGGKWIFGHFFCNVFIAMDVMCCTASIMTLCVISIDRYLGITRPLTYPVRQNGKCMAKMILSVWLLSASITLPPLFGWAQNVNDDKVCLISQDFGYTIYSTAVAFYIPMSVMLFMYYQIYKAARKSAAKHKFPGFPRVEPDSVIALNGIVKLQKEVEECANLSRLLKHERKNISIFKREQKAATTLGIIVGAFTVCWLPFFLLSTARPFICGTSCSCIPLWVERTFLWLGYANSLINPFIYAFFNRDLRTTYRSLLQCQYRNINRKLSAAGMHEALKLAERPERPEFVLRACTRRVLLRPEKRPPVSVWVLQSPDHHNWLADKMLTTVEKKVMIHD

[18] = molecular target: Sodium-dependent noradrenaline transporter (Homo sapiens) (UniProt P23975); assay: Displacement of [3H]nisoxetine from human recombinant norepinephrine transporter expressed in CHO cells at 10 uM after 120 mins by scintillation counting relative to control; assay type: cell-based; conditions: values are per cent of control
Sodium-dependent noradrenaline transporter (Homo sapiens), sequence (P23975 whole entry): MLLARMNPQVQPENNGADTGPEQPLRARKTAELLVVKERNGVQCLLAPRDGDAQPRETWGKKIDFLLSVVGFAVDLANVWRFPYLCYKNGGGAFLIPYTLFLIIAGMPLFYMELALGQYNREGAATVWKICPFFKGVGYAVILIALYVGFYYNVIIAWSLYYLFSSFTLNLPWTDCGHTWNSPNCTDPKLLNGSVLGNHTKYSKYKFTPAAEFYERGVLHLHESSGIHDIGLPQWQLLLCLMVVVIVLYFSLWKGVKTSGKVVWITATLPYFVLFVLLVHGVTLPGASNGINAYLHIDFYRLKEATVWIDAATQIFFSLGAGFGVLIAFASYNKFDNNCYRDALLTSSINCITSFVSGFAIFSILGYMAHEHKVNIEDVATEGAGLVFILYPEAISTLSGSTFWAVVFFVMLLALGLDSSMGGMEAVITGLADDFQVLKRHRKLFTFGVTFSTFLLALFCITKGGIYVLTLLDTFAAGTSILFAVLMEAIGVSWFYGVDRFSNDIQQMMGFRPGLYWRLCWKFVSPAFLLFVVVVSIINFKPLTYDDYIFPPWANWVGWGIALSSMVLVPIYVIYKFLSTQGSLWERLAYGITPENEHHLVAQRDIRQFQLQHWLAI

[19] = molecular target: Sodium-dependent dopamine transporter (Homo sapiens) (UniProt Q01959); assay: Displacement of [3H]BTCP from human recombinant dopamine transporter expressed in CHO cells at 10 uM after 120 mins by scintillation counting relative to control; assay type: cell-based; conditions: values are per cent of control
Ovis aries [20] = organism: Ovis aries; assay: Inhibition of phosphatidyl serine liposome-stimulated sheep brain dynamin 1 GTPase activity assessed as reduction orthophosphate release at 300 uM using GTP as substrate after 30 mins by malachite green reagent based colorimetric assay relative to control
Ovis aries [21] = organism: Ovis aries; assay: Inhibition of phosphatidyl serine liposome-stimulated sheep brain dynamin 1 GTPase activity assessed as reduction orthophosphate release up to 300 uM using GTP as substrate after 30 mins by malachite green reagent based colorimetric assay relative to control

- IC50 ([1]; read-out: IC50): 1800 nM
Compound: CCCCCCCCCCCCNc1ccnc(NCCN(C)C)n1

- IC50 ([1]; read-out: IC50): 1400 nM
- GI50 (SW480): 800 nM
- GI50 (HT-29): 1400 nM
- GI50 (MCF7): 1500 nM
- GI50 (MIA PaCa-2): 1500 nM
- GI50 (A2780): 1800 nM
- GI50 (A-431): 1700 nM
- GI50 (NCI-H460): 2500 nM
- GI50 (DU-145): 1900 nM
- residual binding, % of control [5]: 99%
- residual binding, % of control [6]: 102%
- residual binding, % of control [7]: 106%
- residual binding, % of control [8]: 96%
- residual binding, % of control [9]: 91%
- residual binding, % of control [10]: 104%
- residual binding, % of control [11]: 93%
- residual binding, % of control [12]: 97%
- residual binding, % of control [13]: 93%
- residual binding, % of control [14]: 94%
- residual binding, % of control [15]: 99%
- residual binding, % of control [16]: 91%
- residual binding, % of control [17]: 98%
- residual binding, % of control [18]: 96%
- residual binding, % of control [19]: 105%
Compound: CCCCCCCCCCCCNc1nc(C)cc(NCCN(C)C)n1
- GI50 [2]: 1300 nM
- GI50 (BE(2)-C): 1500 nM
- GI50 [3]: 1500 nM
- GI50 [4]: 1500 nM

- inhibition (Ovis aries [21]): inactive
Compound: CCCCCCCCCCCCCCNc1nc(C)cc(Cl)n1

- IC50 ([1]; read-out: IC50): 2500 nM
Compound: CCCCCCCCNc1nc(C)cc(NCCN(C)C)n1

- IC50 ([1]; read-out: IC50): 9300 nM
Compound: CCCCCCCCCCNc1nc(C)cc(NCCN(C)C)n1

- IC50 ([1]; read-out: IC50): 4700 nM
Compound: CCCCCCCCCCCCNc1nc(C)cc(NCCC)n1

- IC50 [1]: Not Active
Compound: CCCCCCCCCCCCCCNc1nc(C)cc(NCCN(C)C)n1

- IC50 ([1]; read-out: IC50): 5500 nM
Compound: CCCCCCCCCCCCNc1nc(C)cc(NCCO)n1

- IC50 ([1]; read-out: IC50): 61800 nM
Compound: CCCCCCCCCCCCNc1cc(C)nc(NCCC)n1

- IC50 ([1]; read-out: IC50): 3300 nM
Compound: CCCCCCCCCCCCNc1nc(C)cc(N(C)C)n1

- inhibition (Ovis aries [21]): inactive
Compound: CCCCCCCCCCCCCCNc1cc(C)nc(Cl)n1

- IC50 ([1]; read-out: IC50): 3200 nM
Compound: CCCCCCCCCCCCCCNc1cc(C)nc(NCCN(C)C)n1

- IC50 ([1]; read-out: IC50): 49000 nM
Compound: CCCCCCCCCCCCNc1cc(C)nc(NCCCN(C)C)n1

- IC50 ([1]; read-out: IC50): 8400 nM
Compound: CCCCCCCCCCCCCCCCCCNc1cc(C)nc(NCCN(C)C)n1

- IC50 ([1]; read-out: IC50): 10600 nM
Compound: CCCCCCNc1cc(C)nc(NCCN(C)C)n1

Further lines, the molecule ahead of its results:

Compound: CCC(C)Nc1nc(C)cc(NCCN(C)C)n1 (centres undefined)
- IC50 ([1]; read-out: IC50): > 50000 nM
- inhibition (Ovis aries [20]): > 50%

Compound: CCCCNc1nc(C)cc(NCCN(C)C)n1
- inhibition (Ovis aries [20]): inactive

Compound: CCC(C)Nc1cc(C)nc(NCCN(C)C)n1 (centres undefined)
- inhibition (Ovis aries [20]): inactive

Compound: CCCN(CC1CC1)c1cc(C)nc(Cl)n1
- inhibition (Ovis aries [21]): inactive

Compound: Cc1cc(NC2CCCCC2)nc(NCCN(C)C)n1
- IC50 ([1]; read-out: IC50): 20600 nM

Compound: CCCN(CC1CC1)c1nc(C)cc(NCCN(C)C)n1
- IC50 ([1]; read-out: IC50): 59800 nM

Compound: CCCCCCCCNc1cc(C)nc(Cl)n1
- inhibition (Ovis aries [21]): inactive

Compound: CCCCCCNc1cc(C)nc(Cl)n1
- inhibition (Ovis aries [21]): inactive

Compound: Cc1cc(NCc2ccccc2)nc(Cl)n1
- inhibition (Ovis aries [21]): inactive

Compound: CCNc1cc(C)nc(Cl)n1
- inhibition (Ovis aries [21]): inactive

Compound: CCCN(CC1CC1)c1cc(C)nc(NCCN(C)C)n1
- IC50 ([1]; read-out: IC50): 52000 nM

Compound: Cc1cc(NCCNC(=O)OC(C)(C)C)nc(Cl)n1
- inhibition (Ovis aries [21]): inactive

Compound: CCCCNc1nc(C)cc(Cl)n1
- inhibition (Ovis aries [21]): inactive

Compound: CCCCCCCCCCNc1cc(NCCN(C)C)ncn1
- IC50 ([1]; read-out: IC50): 5100 nM

Compound: Cc1cc(Cl)nc(NC2CCCCC2)n1
- inhibition (Ovis aries [21]): inactive

Compound: CCCN(CC1CC1)c1nc(C)cc(Cl)n1
- inhibition (Ovis aries [21]): inactive

Compound: CCCCCCCCCCCCNc1cc(C)nc(NCCN(C)C)n1
- IC50 ([1]; read-out: IC50): 1100 nM

Compound: Cc1cc(NCCN)nc(Cl)n1
- inhibition (Ovis aries [21]): inactive

Compound: Cc1cc(Cl)nc(N(C)C)n1
- inhibition (Ovis aries [21]): inactive

Compound: CCCCNc1cc(C)nc(NCCN(C)C)n1
- IC50 ([1]; read-out: IC50): > 50000 nM
- inhibition (Ovis aries [20]): > 50%

Compound: CCCCCCCCCCCCNc1cc(C)nc(N(C)C)n1
- IC50 ([1]; read-out: IC50): 14000 nM

Compound: CCCCCCCCCCNc1cc(C)nc(Cl)n1
- inhibition (Ovis aries [21]): inactive

Compound: Cc1cc(NCc2ccccc2)nc(NCCN(C)C)n1
- IC50 ([1]; read-out: IC50): > 50000 nM
- inhibition (Ovis aries [20]): > 50%

Compound: Cc1cc(Cl)nc(NCCCN(C)C)n1
- inhibition (Ovis aries [21]): inactive

From ChEMBL document CHEMBL4000185, “Pyrimidine-Based Inhibitors of Dynamin I GTPase Activity: Competitive Inhibition at the Pleckstrin Homology Domain” (J Med Chem, 2017)
